# Assay results: US20060122153A1, “Antineoplastic ether lipid compounds with modifications at the sn-2 carbon” (priority 2003, published 2006)
# Entries after “also recorded” stand apart in the source; their conditions may differ.
# What was measured:
# [1] = tested on: platelets in dog whole blood; assay: Platelet aggregation in whole blood (Chronolog whole blood aggregometer)
# Procedure: Briefly, whole citrated blood is diluted 1:2 with sterile saline and placed in a warm chamber with a mini stir bar. An electronic probe, measuring electrical resistance, is inserted in the sample. The aggregometer is calibrated and the baseline is observed to detect any spontaneous aggregation. The test sample is added and allowed to run for at least 6 minutes. If the sample is an agonist the platelets will start to aggregate and stick to the electronic probe causing resistance across the electrodes to increase. This resistance, in ohms, is measured 6 minutes post addition of sample. The test samples are run at 25, 100, 200, 400 and 800 uM and compared to 100 uM L-ET-18-OCH3.
# Collection of Blood Sample for in vitro Platelet Aggregation Testing: Venous blood is collected in 4.5 mL Vacutainer tubes containing 0.129 M sodium citrate using a 21G needle or larger. Blood is immediately mixed by gentle inversion 15-20 times and kept at room temperature. Dilution ratio is 1 to 9 (3.8% citrate solution:blood). One (2.0 mL) Vacutainer tube containing EDTA is also collected for platelet counts. Complete blood counts (CBC) are measured on the CDC Technologies Hemavet 1500 to ensure that the test subject's platelets are within normal range. Amy vials of hemolytic blood or blood containing any clots should be discarded. Platelet aggregation testing must be completed within 3 hours of blood collection. After this time the ability of platelets to aggregate decreases.
# Dilutions were prepared in PBS or saline at 40× concentration. (25 uL test sample are added to 1000 uL diluted blood (1:40)).
# NCI-H23 = assay: NCI growth inhibition screen, non-small cell lung panel; assay type: cell-based, human; design: key: = means equivalent activity; + means that it appears to be significantly better (i.e., by ˜2x); < means it appears to be less active than ET18OCH3 (˜2x); a combination like =/+ or </+ means that activity is dependent upon the isomer; a combination like =/+ or </+ means that activity is dependent upon the isomer; details: NCI-H23, NS cell lung; from GI50s
# Procedure: (§1) Candidates deemed suitable for in vivo testing were then synthesized in large scale quantities and some of this material was sent to the NCI's Developmental Therapeutics Program for a battery of growth inhibitory studies against various human tumor cell lines (60 cell lines, 9 different panels). The remainder of the material was used to assess in vivo efficacy using murine tumor models. Additionally, studies were conducted on the lead candidates to discern mechanism of action with particular emphasis on these agents apoptotic ability as measured by caspase 3 activity. The details (materials and methods) for these various assays are described further in the following discussion.
# (§2) Ten compounds were also sent to NCI's Drug Discovery Program for screening against numerous human tumor cell lines (9 panels total: renal ovarian, colon, CNS, non-small cell lung, leukemia, breast, melanoma, and prostate). The data are shown in FIGS. 2a-i which also include data regarding D- and L-ET-18-OCH3 (listed as L-EL and D-EL in the figures). Upon examining the data, one is struck by how 1R and 1a′S standout in comparison to the other compounds, especially for the renal, ovarian, colon, and CNS panels.
# CCRF-CEM = assay: NCI growth inhibition screen, leukemia panel; assay type: cell-based, human; design: key: = means equivalent activity; + means that it appears to be significantly better (i.e., by ˜2x); < means it appears to be less active than ET18OCH3 (˜2x); a combination like =/+ or </+ means that activity is dependent upon the isomer; a combination like =/+ or </+ means that activity is dependent upon the isomer; details: from GI50s
# Procedure: as §1, §2
# LOX IMVI = assay: NCI growth inhibition screen, melanoma panel; assay type: cell-based, human; design: key: = means equivalent activity; + means that it appears to be significantly better (i.e., by ˜2x); < means it appears to be less active than ET18OCH3 (˜2x); a combination like =/+ or </+ means that activity is dependent upon the isomer; a combination like =/+ or </+ means that activity is dependent upon the isomer; details: from GI50s
# Procedure: as §1, §2
# UACC62 = assay: NCI growth inhibition screen, melanoma panel; assay type: cell-based, human; design: key: = means equivalent activity; + means that it appears to be significantly better (i.e., by ˜2x); < means it appears to be less active than ET18OCH3 (˜2x); a combination like =/+ or </+ means that activity is dependent upon the isomer; a combination like =/+ or </+ means that activity is dependent upon the isomer; details: from GI50s
# Procedure: as §1, §2
# SK-MEL-5 = assay: NCI growth inhibition screen, melanoma panel; assay type: cell-based, human; design: key: = means equivalent activity; + means that it appears to be significantly better (i.e., by ˜2x); < means it appears to be less active than ET18OCH3 (˜2x); a combination like =/+ or </+ means that activity is dependent upon the isomer; a combination like =/+ or </+ means that activity is dependent upon the isomer; details: SK-MEL-5, Melanoma; from GI50s
# Procedure: as §1, §2
# SK-MEL-28 = assay: NCI growth inhibition screen, melanoma panel; assay type: cell-based, human; design: key: = means equivalent activity; + means that it appears to be significantly better (i.e., by ˜2x); < means it appears to be less active than ET18OCH3 (˜2x); a combination like =/+ or </+ means that activity is dependent upon the isomer; a combination like =/+ or </+ means that activity is dependent upon the isomer; details: SK-MEL-28, Melanoma; from GI50s
# Procedure: as §1, §2
# UACC-257 = assay: NCI growth inhibition screen, melanoma panel; assay type: cell-based, human; design: key: = means equivalent activity; + means that it appears to be significantly better (i.e., by ˜2x); < means it appears to be less active than ET18OCH3 (˜2x); a combination like =/+ or </+ means that activity is dependent upon the isomer; a combination like =/+ or </+ means that activity is dependent upon the isomer; details: UACC-257, Melanoma; from GI50s
# Procedure: as §1, §2
# M14 = assay: NCI growth inhibition screen, melanoma panel; assay type: cell-based, human; design: key: = means equivalent activity; + means that it appears to be significantly better (i.e., by ˜2x); < means it appears to be less active than ET18OCH3 (˜2x); a combination like =/+ or </+ means that activity is dependent upon the isomer; a combination like =/+ or </+ means that activity is dependent upon the isomer; details: from GI50s
# Procedure: as §1, §2
# [2] = tested on: DEVDase activity (Caspase 3) in U937 cell line; assay: DEVDase activity in U937 cell line; assay type: cell-based, human
# Procedure: Suspension cells were seeded at density 3.2×10^5 cells per mL in RPMI-1640 medium (Bio-Whittaker) supplemented with 10% heat inactivated FBS (Bio-Whittaker). Cells were pre-incubated overnight prior to treatment with the ether lipid compounds of the invention. At treatment time cell density was 5×10^5 cells per mL. Cells were incubated with the ether lipid compounds of the invention for various periods of time, usually 6 hours. Cells were collected, washed with 1×DPBS and resuspended in 110 μl of Buffer A (10 mM BEPES-KOH, pH 7.4, 2 mM EDTA, 0.1% CHAPS, 5 mM DTT, 1:100 dilution of protease inhibitors cocktail (Sigma)-DTT and protease inhibitors should be added just before use). […]
# Measurement of DEVDase activity was carried out in 100 μl volume, where 10 μg of protein was delivered in 50 μl of Buffer A and 40 μM of substrate Ac-DEVD-AMC was also delivered in 50 μl of Buffer A. All measurements were done in triplicates. Reaction was carried out for 1 hour and generation of fluorescent product of reaction (aminomethylcoumarin) was measured by reading fluorescence at 1em 460 nm (1ex 360 nm). Changes in DEVDase activity were calculated after subtraction of background fluorescence of substrate incubated without proteins, and were expressed as percent of control (DEVDase activity in untreated cells). […]
SMILES,Relative Platelet Aggregation (Ohms) ([1]; 25 μM),Relative Platelet Aggregation (Ohms) ([1]; 100 μM),Relative Platelet Aggregation (Ohms) ([1]; 200 μM),Relative Platelet Aggregation (Ohms) ([1]; 400 μM),Relative Platelet Aggregation (Ohms) ([1]; 800 μM),Performance as compared to ET-18-O—CH3 (NCI-H23),Performance as compared to ET-18-O—CH3 (CCRF-CEM),Performance as compared to ET-18-O—CH3 (LOX IMVI),Performance as compared to ET-18-O—CH3 (UACC62),Performance as compared to ET-18-O—CH3 (SK-MEL-5),Performance as compared to ET-18-O—CH3 (SK-MEL-28),Performance as compared to ET-18-O—CH3 (UACC-257),Performance as compared to ET-18-O—CH3 (M14),DEVDase activity compared to ET-18-OCH3 (in words) [2],platelet aggregation response (in words) [1]
CCCCCCCCCCCCCCCCCCOC[C@@H](COP(=O)([O-])OCC[N+](C)(C)C)OS(C)(=O)=O [1a′S],0,0,0,0,0,0,0,0,64,0,</=,0,0,equivalent to ET-18-OCH3; also recorded: more active than 1aR,
CCCCCCCCCCCCCCCCCCOCC(COP(=O)([O-])OCC[N+](C)(C)C)OS(C)(=O)=O (centres unmarked) [Compound 1aR],0,0,0,0,0,=,=,=,+,=,=/+,=,=,equivalent to ET-18-OCH3,none of the “L” isomer compounds (1cR or 1aR) evoked an aggregatory response
